From US4250259A, “Microbiological production of ketones from C3 -C6 secondary alcohols” (priority 1979, dated 1981)
Where two headings read alike, the source gives them in different places.

Experiments:
[1] = test system: purified secondary alcohol dehydrogenase (SADH); test: substrate specificity and Michaelis constants of purified SADH; assay type: biochemical, Pseudomonas sp. ATCC 21439
[2] = test system: secondary alcohol dehydrogenase (SADH), cell-free soluble extract; details: Growth Substrate CH4
Experimental: (§1) To prepare the cell-free secondary alcohol dehydrogenase (SADH) system, the washed cells were disrupted with a Wave Energy Ultrasonic Oscillator, Model W201 (Wave Energy System, Inc., Newtown, Pa.) and centrifuged at 20,000×g. for 30 minutes. […] The enzyme activity was measured with a fluorescence spectrophotometer (Perkin Elmer, Model MPF 44A) by following the formation of reduced NAD (EX 340 nm, Em 460 nm). The formation of reduced NAD was also followed with an absorption spectrophotometer at 340 nm. The assay system (3 ml.) contained: potassium phosphate buffer pH 7.0; 150 μmol.; NAD 1 μmol.; a given amount of enzyme preparation; and secondary alcohol 10 μmol. The reaction was started by the addition of substrate. One unit of enzyme activity represents the reduction of one μmole NAD per minute. Protein concentrations were determined by the Lowry method (J. Biol. Chem., 193: 255-275 (1951)).
(§2) The experimental procedure for the tests reported in Table VIII were as follows: 1 mg protein of crude extract was added into a 0.5 ml. 0.05 M phosphate buffer (pH 7.0) in a 10-ml. vial. […] The reaction mixture was incubated at 30° C. on a water bath. A 3 μl sample was removed with a syringe at 15 min. of incubation and was assayed with g.l.c. Catalytic activity was also assayed by fluorescence spectrophotometry.

Pichia sp. NRRL-Y-11328 = test: sec-alcohols to ketones by cell suspensions of yeasts; assay type: cell-based
[3] = test system: cell extracts (NAD+-dependent secondary alcohol dehydrogenase); test: sec-alcohols to methyl ketones by cell extracts of yeasts, gas chromatography; assay type: biochemical, Pichia sp. NRRL-Y-11,328; details: grown on methanol
[4] = test system: secondary alcohol dehydrogenase (SADH), cell-free soluble extract; details: Growth Substrate CH3 OH
Experimental: as §1, §2

[5] = test system: cell extracts (NAD+-dependent secondary alcohol dehydrogenase); test: sec-alcohols to methyl ketones by cell extracts of yeasts, gas chromatography; assay type: biochemical, Hansenula polymorpha ATCC 26,012; details: grown on methanol
[6] = test system: Methylomonas albus BG8 (NRRL B-11,200); test: sec-alcohols to ketones by resting cell suspensions; assay type: cell-based
Experimental: (§3) The pH of the nutrient medium was adjusted to 7.0 by the addition of acid or base and 50 ml. samples of the nutrient medium were charged into a plurality of 300 ml. shaker flasks. The shaker flasks were inoculated with an inoculating loop of cells from an agar plate containing homogeneous colonies of the microorganisms on the plate (the purity of the isolates was confirmed by microscopic examination). The isolates had been maintained on methanol (0.4% V/V) agar plates or on agar plates under an atmosphere of methane and air having a 1:1 V/V gas ratio which had been transferred every two weeks. For growth on methanol, the medium was supplemented with 0.4% methanol. For growth on methane, the gaseous phase of the inoculated flasks was replaced with a gas mixture comprised of methane and air having a ratio of 1:1 on a V/V basis. The inoculated flasks were sealed air-tight and were incubated on a rotary shaker of orbital radius 2.5 cm. at 250 rpm and at 30° C. for two days until turbidity in the medium had developed. The cells were harvested by centrifugation at 10,000×g. at 4° C. for 30 minutes. The cell pellet was washed twice with a 0.05 M phosphate buffer at a pH of 7.0 (containing 0.02 M MgCl2). The washed cells were then suspended in a 0.05 M phosphate buffer at pH 7.0.
(§4) A 0.5 ml. sample of each washed cell suspension (2 mg. cells) was put into 10 ml. vials at 4° C. which were sealed with a rubber cap. The gaseous phase of the vials was removed with vacuum and then was replaced with a gas mixture of the substrate reactant (i.e., alkane or secondary alcohol) and oxygen at a 1:1 V/V ratio. (In the case of a liquid substrate, i.e., secondary alcohol, 10 μl of the substrate was put in the 10 ml. vials). […] Samples of product (1-3 μl) were withdrawn periodically with a microsyringe and the products were analyzed by gas chromatography (ionization flame detector column).
(§5) The procedure in Example 1 was repeated wherein a plurality of the methane-utilizing methylotrophic microorganisms were each grown aerobically in a nutrient medium containing methane as the alcohol dehydrogenase enzyme inducer and as the major carbon and energy source for growth. The cells were harvested and washed as described in Example 1. The resting microbial cells of the induced methane-grown methane-utilizing methylotrophic microorganisms were then contacted with C3 -C6 secondary alcohols in a buffered solution by the procedure of Example 1.
(§6) In this example, the procedure in Example 1 was repeated except that a plurality of methane-utilizing methylotrophic microorganisms were each aerobically grown in a methanol-containing nutrient medium instead of a methane-containing medium. The nutrients in the medium were the same as indicated in Example 1 except that 0.4% V/V methanol was used as the alcohol dehydrogenase inducer and major source of carbon and energy for growth. Following growth, the cells were harvested and washed as described in Example 1.
(§7) The resting cells of the induced methanol-grown methylotrophic microorganisms were then contacted with secondary alcohols in a buffered solution by the procedure described in Example 1.

[7] = test system: Methylosinus sporium 5 (NRRL B-11,197); test: as above; assay type: cell-based
Experimental: as §3, §4, §5, §6, §7

[8] = test system: Methylobacterium organophilum XX (ATCC 27886); test: as above; assay type: cell-based
Experimental: as §3, §4, §5, §6, §7
(§8) The procedure in Example 1 was repeated except that the methylotrophic microorganisms were each aerobically grown in an alcohol dehydrogenase-inducing growth medium containing methylamine or methyl formate as the alcohol dehydrogenase enzyme inducer and growth substrate instead of methane. The nutrients in the medium were the same as indicated in Example 1 except that 0.4% V/V of the alcohol dehydrogenase-inducer growth substrate was used as the major carbon and energy source. The cells were harvested and washed as described in Example 1. The resting microbial cells were then contacted with C3 -C6 secondary alcohols in a buffered solution by the conversion procedure of Example 1.

[9] = test system: Methylosinus trichosporium OB3b (NRRL B-11,196); test: as above; assay type: cell-based
Experimental: as §3, §4, §5, §6, §7, §8

[10] = test system: purified secondary alcohol dehydrogenase; test: substrate specificity, electron acceptor and stoichiometry of purified yeast SADH
[11] = test system: secondary alcohol dehydrogenase (SADH), cell-free soluble extract; test: oxidation of sec-alcohols by cell-free soluble extracts; assay type: biochemical, Methylobacterium organophilum CRL 26 (NRRL B-11,222)
Experimental: as §1, §2

## CCC(C)O (stereo not drawn) [2-Butanol, 2-butanol]
[1]
  oxidation by purified SADH: highest
[2]
  Conversion Rate, 2-butanol to 2-butanone: 0.8 nmoles/min/mg protein
Pichia sp. NRRL-Y-11328; Growth Substrate Ethanol
  Conversion Rate, sec-alcohol to corresponding ketone: 6.2 μmoles/hr/mg of protein
Pichia sp. NRRL-Y-11328; Growth Substrate Methanol
  Conversion Rate, sec-alcohol to corresponding ketone: 6.8 μmoles/hr/mg of protein
Pichia sp. NRRL-Y-11328; Growth Substrate Methylamine
  Conversion Rate, sec-alcohol to corresponding ketone: 5.1 μmoles/hr/mg of protein
Pichia sp. NRRL-Y-11328; Growth Substrate Methylformate
  Conversion Rate, sec-alcohol to corresponding ketone: 6.9 μmoles/hr/mg of protein
Pichia sp. NRRL-Y-11328; Growth Substrate Propylamine
  Conversion Rate, sec-alcohol to corresponding ketone: 2.1 μmoles/hr/mg of protein
[3]
  Conversion Rate, sec-alcohol to methyl ketone: 6.2 μmoles/hr/mg Protein
[4]
  Conversion Rate, 2-butanol to 2-butanone: 5.0 nmoles/min/mg protein
[5]
  Conversion Rate, sec-alcohol to methyl ketone: 5.2 μmoles/hr/mg Protein
[6]; cells grown on methane
  Conversion Rates, sec-alcohol to corresponding ketone: 3.5 μmoles/hr/mg protein
[6]; cells grown on methanol
  Conversion Rates, sec-alcohol to corresponding ketone: 3.0 μn moles/hr/mg protein
[7]; cells grown on methane
  Conversion Rates, sec-alcohol to corresponding ketone: 3.0 μmoles/hr/mg protein
[7]; cells grown on methanol
  Conversion Rates, sec-alcohol to corresponding ketone: 3.5 μn moles/hr/mg protein
[8]; cells grown on methane
  Conversion Rates, sec-alcohol to corresponding ketone: 2.5 μmoles/hr/mg protein
[8]; cells grown on methanol
  Conversion Rates, sec-alcohol to corresponding ketone: 2.8 μn moles/hr/mg protein
[8]; methyl formate-grown cells
  Conversion Rates, sec-alcohol to corresponding ketone: 3.5 μmoles/hr/mg protein
[9]; cells grown on methane
  Conversion Rates, sec-alcohol to corresponding ketone: 3.7 μmoles/hr/mg protein
[9]; cells grown on methanol
  Conversion Rates, sec-alcohol to corresponding ketone: 4.1 μn moles/hr/mg protein
[9]; methyl formate-grown cells
  Conversion Rates, sec-alcohol to corresponding ketone: 4.5 μmoles/hr/mg protein
[10]; examined spectrophotometrically
  oxidation by the purified yeast secondary alcohol dehydrogenase: catalyzed the oxidation
[10]; stoichiometry, Acetone from Isopropanol, 2-Butanone from 2-Butanol, gas chromatography
  Product Formed: 5.7 µmol
[11]; Growth Substrate CH3 NH2
  Conversion Rate, 2-butanol to 2-butanone: 2.0 nmoles/min/mg protein
[11]; Growth Substrate CH3 OH
  Conversion Rate, 2-butanol to 2-butanone: 2.5 nmoles/min/mg protein
[11]; Growth Substrate CH4
  Conversion Rate, 2-butanol to 2-butanone: 1.8 nmoles/min/mg protein
[11]; Growth Substrate HCOOCH3
  Conversion Rate, 2-butanol to 2-butanone: 2.0 nmoles/min/mg protein
[11]; soluble crude extract, grown on methanol
  Oxidation Rate, sec-alcohol to corresponding ketone: 2.5 nmole/min/mg protein
